Reference: patent US5656651A, “Androgenic directed compositions” (Biophysica Inc., priority 1995, dated 1997)
Several values for one entry are separate records, joined by “and”; a condition that tells them apart may be missing. Identical values can stand only once. Like-named read-outs stand apart in the source and are kept apart here.

Legend:
human androgen receptors [1] = target: T1, human androgen receptors (Homo sapiens, UniProt P10275); experiment: Transactivation assay, anti-androgenic potency, CV1-3.9.2 cells; type: cell-based; details: stimulation with 0.1 nM testosterone
T1 construct: expressed in transfected cells; host or cells: CV-1 monkey cells (clone CV1-3.9.2)
T1 sequence (P10275 whole entry): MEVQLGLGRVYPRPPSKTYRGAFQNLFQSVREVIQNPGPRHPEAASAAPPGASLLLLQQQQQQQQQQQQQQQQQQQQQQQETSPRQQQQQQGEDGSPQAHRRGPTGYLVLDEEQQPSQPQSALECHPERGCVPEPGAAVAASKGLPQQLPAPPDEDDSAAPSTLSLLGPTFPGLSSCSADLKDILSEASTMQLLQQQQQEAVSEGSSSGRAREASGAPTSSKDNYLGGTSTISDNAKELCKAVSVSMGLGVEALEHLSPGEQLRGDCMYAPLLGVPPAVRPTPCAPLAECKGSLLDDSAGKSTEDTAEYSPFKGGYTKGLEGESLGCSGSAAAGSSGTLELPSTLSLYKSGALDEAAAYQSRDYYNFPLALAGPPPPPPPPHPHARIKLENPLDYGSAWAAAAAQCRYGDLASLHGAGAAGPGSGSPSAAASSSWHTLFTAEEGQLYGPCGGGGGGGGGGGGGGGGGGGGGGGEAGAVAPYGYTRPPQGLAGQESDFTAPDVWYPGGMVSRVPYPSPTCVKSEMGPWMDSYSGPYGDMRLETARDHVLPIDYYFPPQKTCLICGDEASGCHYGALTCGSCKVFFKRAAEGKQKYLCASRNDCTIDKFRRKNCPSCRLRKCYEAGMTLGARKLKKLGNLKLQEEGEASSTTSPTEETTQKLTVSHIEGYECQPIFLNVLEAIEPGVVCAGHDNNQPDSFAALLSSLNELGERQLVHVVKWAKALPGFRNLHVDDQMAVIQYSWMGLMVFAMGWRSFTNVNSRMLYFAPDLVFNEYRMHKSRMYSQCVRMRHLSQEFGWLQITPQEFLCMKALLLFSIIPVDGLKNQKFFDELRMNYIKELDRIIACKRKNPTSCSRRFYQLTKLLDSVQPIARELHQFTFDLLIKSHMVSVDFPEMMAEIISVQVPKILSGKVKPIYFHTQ
Experimental: (§1) The androgenic and anti-androgenic activity of the current and novel compounds was tested in a specific assay described by Fuhrman et al. [J. Steroid Biochem. Molec. […] This assay uses CV-1 cells derived from monkeys transfected with human androgen receptors.

human androgen receptors [2] = target: T1, human androgen receptors; experiment: Androgen activity of anti-androgens in CVI-3.9.2 cells (CAT activity); type: cell-based
Experimental: as §1

[3] = test system: Ln CAP Human Prostate (with androgen receptors); experiment: Inhibition of cell proliferation at 72 hours, Ln CAP; type: cell-based; details: LNCaP
Experimental: (§2) All compounds were screened on a panel of normal and cancer human cell lines, including human prostate cancer cell lines, PC-3, DU-145, and LnCAP.
(§3) Cells (10^4 /well) were plated on 96 well plates with the following controls: no cells and toxic control (1×10^-3 M sodium dodecyl sulfate (SDS). The drug was diluted in ethanol and added directly to the wells. Plates were incubated at 37° C. under 5% carbon dioxide in sterile air, in a humidified incubator for 72 hours. A solution (50 μl of 2,3-bis-(methoxy-4-nitro-5-sulfophenyl)-5-[(phenylamino)carbonyl]-2H-tetrazolium hydroxide (XTT), 1 mg/mL) in phosphate buffered saline (PBS, 100 mM) was added to each well, In the presence of viable cells, this colorless clear solution is enzymatically transformed to give a pink coloration, read at 450 nm using a microplate reader (Molecular Devices Thermomax). The inhibition of cell growth was measured by hemocytometer, counting cell viability. (Table I)

[4] = test system: PC-3 Human Prostate (few androgen receptors); experiment: Inhibition of cell proliferation at 72 hours, PC-3; type: cell-based; details: PC-3, 72 hours
Experimental: as §2, §3

[5] = test system: HLF-1 Normal Lung Diploid; experiment: Inhibition of cell proliferation at 72 hours, HLF-1; type: cell-based; details: Homo sapiens, HLF1
Experimental: as §2, §3

[6] = test system: NH DF Normal Dermal Fibroblast; experiment: Inhibition of cell proliferation at 72 hours, NH DF; type: cell-based; details: Homo sapiens, NHDF
Experimental: as §2, §3

[7] = test system: MCF-7/ADR Human Breast (adriamycin resistant); experiment: Inhibition of cell proliferation at 72 hours, MCF-7/ADR; type: cell-based; details: NCI/ADR-RES, MCF-7/ADR (adriamycin resistant)
Experimental: as §2, §3

[8] = test system: CHO Chinese Hamster Ovary; experiment: Inhibition of cell proliferation at 72 hours, CHO; type: cell-based; details: Cricetulus griseus
PC-3 human cell line = experiment: Relative growth inhibition after 6 days; type: cell-based; details: for activity at 10 µM: Homo sapiens, read-out: No. of cells remaining expressed as a % of control
Experimental: as §2
as §3, with “Plates were incubated at 37° C. under 5% carbon dioxide in sterile air, in a humidified incubator for 72 hours.” left out

[9] = test system: panel of normal and cancer human cell lines; experiment: Cytotoxicity screen on panel of normal and cancer cell lines; type: cell-based
Experimental: as §2, §3

MCF-7 Human Breast = experiment: Inhibition of cell proliferation at 72 hours, MCF-7; type: cell-based; details: MCF7, MCF-7, 72 hours
Experimental: as §2, §3

Ovcar 3 Human Ovary = experiment: Inhibition of cell proliferation at 72 hours, Ovcar 3; type: cell-based; details: Ovcar 3, 72 hours
Experimental: as §2, §3

[10] = test system: Molt-4 Human T-cell Leukemia; experiment: Inhibition of cell proliferation at 72 hours, Molt-4; type: cell-based; details: Molt-4, 72 hours
Experimental: as §2, §3

[11] = test system: DU-145 Human Prostate (receptor poor); experiment: Inhibition of cell proliferation at 72 hours, DU-145; type: cell-based; details: DU-145, 72 hours
Experimental: as §2, §3

L-1210 Mouse Leukemia = experiment: Inhibition of cell proliferation at 72 hours, L-1210; type: cell-based; details: L1210, L-1210, 72 hours
glucocorticoid receptors = details: background statement; cited from earlier work
progestin receptors = details: background statement; cited from earlier work
androgen receptors = details: background statement; cited from earlier work
[12] = 10^-5 M, cell density 10^4/well

In the case of `CC(C)(C)OC(=O)NCCN1C(=S)N(c2ccc(C#N)c(C(F)(F)F)c2)C(=O)C1(C)C` [BP137, 4-[3-(2'-N-(t-butoxycarbonyl)-aminoethyl)-4,4-dimethyl-5-oxo-2-thioxo-1-imidazolidinyl]-2-trifluoromethyl-benzonitrile], the IC50 (human androgen receptors [1]) is reported as 0.02 µM and the “CAT Activity” value (human androgen receptors [2]; 1 μM) is reported as 2000 cpm.
In the case of `CC1(C)OCC(CN2C(=S)N(c3ccc(C#N)c(C(F)(F)F)c3)C(=O)C2(C)C)O1` (centres unmarked) [BP134, 4-[4,4-dimethyl-3-[2',2'-dimethyl-1',3'-dioxolane-4'-methyl)-5-oxo-2-thioxo-1-imidazolidinyl]-2-trifluoromethyl-benzonitrile], the IC50 (human androgen receptors [1]) is reported as 0.021 µM and the “CAT Activity” value (human androgen receptors [2]; 1 μM) is reported as 1600 cpm.
In the case of `CC(=O)O[C@H]1C(=O)[C@]2(C)[C@@H](OC(=O)NCCN3C(=S)N(c4ccc(C#N)c(C(F)(F)F)c4)C(=O)C3(C)C)C[C@H]3OC[C@@]3(OC(C)=O)[C@H]2[C@H](OC(=O)c2ccccc2)[C@]2(O)C[C@H](OC(=O)[C@H](O)[C@@H](NC(=O)c3ccccc3)c3ccccc3)C(C)=C1C2(C)C` [BP-196, 7-{imidazolidinyl-5",5"-dimethyl-4"-oxo-3"-[4"'-cyano-3'"-trifluoromethylphenyl-imidazolidinyl]-2"-thioxo-1"-ethylcarbamoxy}paclitaxel], the IC50 [3] is reported as 0.131 µM, the IC50 [4] is reported as 0.0372 µM and the IC50 [5] is reported as 8.06 µM. It also gave an IC50 [6] of 0.107 µM, an IC50 [7] of 10 µM and an IC50 [8] of 8.76 µM. For the same compound, the “Observation (relative growth inhibition)” value (PC-3 human cell line; 10^-5 M, after 6 days, cell density 10^4/well) was “cytotoxic cell death”, the activity at 10 µM (PC-3 human cell line; [12]) was roughly 100% and the “toxicity vis-a-vis normal cells” value ([9]; normal cells) was “quite high”. It also gave an IC50 (MCF-7 Human Breast) of 0.989 µM, an IC50 (Ovcar 3 Human Ovary) of 0.05 µM and an IC50 [10] of 0.147 µM. The IC50 [11] was 0.867 µM and the IC50 (L-1210 Mouse Leukemia) was 0.97 µM.
For `CC(=O)O[C@]1(C(C)=O)CC[C@H]2[C@@H]3C=C(Cl)C4=CC(=O)[C@@H]5C[C@@H]5[C@]4(C)[C@H]3CC[C@@]21C` [Cyproterone Acetate], the “binding to glucocorticoid receptors” value (glucocorticoid receptors) is given as “binds to the glucocorticoid and progestin receptors” and the “binding to progestin receptors” value (progestin receptors) is given as “binds to the glucocorticoid and progestin receptors”.
For `CC1(C)C(=O)N(c2ccc(C#N)c(C(F)(F)F)c2)C(=S)N1CC(O)CO` (centres unmarked) [BP135, 4-[3-(2',3'-dihydroxypropyl)-4,4-dimethyl-5-oxo-2-thioxo-1-imidazolidinyl]-2-trifluoromethyl-benzonitrile], the IC50 (human androgen receptors [1]) was 0.158 µM and the “CAT Activity” value (human androgen receptors [2]; 1 μM) was 1900 cpm.
With `CC1(C)OCC(CN2C(=S)N(c3ccc(C#N)c(C(F)(F)F)c3)C(=N)C2(C)C)O1` (centres unmarked) [BP163, 4-[4,4-dimethyl-3-(2',2'-dimethyl-1',3'-dioxolane-4'-methyl)-5-imino-2-thioxo-1-imidazolidinyl]-2-trifluoromethyl-benzonitrile] the IC50 (human androgen receptors [1]) was 0.217 µM and the “CAT Activity” value (human androgen receptors [2]; 1 μM) was 2100 cpm.
For `CC1(C)C(=O)N(c2ccc(C#N)c(C(F)(F)F)c2)C(=S)N1CCCCO` [RU59063, 4-[4,4-dimethyl-3-(4-hydroxybutyl)-5-oxo-2-thioxo-1-imidazolidinyl]-2-trifluoromethyl-benzonitrile, reference compound], the IC50 (human androgen receptors [1]) was 0.023 µM and the “CAT Activity” value (human androgen receptors [2]; 1 μM) was 2600 cpm.
For `CC(O)(CS(=O)(=O)c1ccc(F)cc1)C(=O)Nc1ccc(C#N)c(C(F)(F)F)c1` (centres unmarked) [Casodex], the “binding to androgen receptors (sufficiency for complete blockage)” value (androgen receptors) is given as “do not bind sufficiently to androgen receptors to achieve their complete blockage”.
For `CC(C)(C)OC(=O)NCCN1C(=S)N(c2ccc(C#N)c(C(F)(F)F)c2)C(=N)C1(C)C` [BP136, 4-[3-(2'-(N-t-butoxycarbonyl)-aminoethyl)-4,4-dimethyl-5-imino-2-thioxo-1-imidazolidinyl]-2-trifluoromethyl-benzonitrile], the IC50 (human androgen receptors [1]) was 0.2 µM and the “CAT Activity” value (human androgen receptors [2]; 1 μM) was 1800 cpm.
`C#CCN1C(=S)N(c2ccc(C#N)c(C(F)(F)F)c2)C(=O)C1(C)C` [BP-199, 4-[4,4-dimethyl-3-(2'-propynyl)-5-oxo-2-thioxo-1-imidazolidinyl]-2-trifluoromethyl-benzonitrile] gave an IC50 (human androgen receptors [1]) of 0.015 µM, an IC50 [3] of 0.82 µM and an IC50 [4] of 0.132 µM. The IC50 [5] was greater than 100 µM, the IC50 [6] was greater than 100 µM and the IC50 [7] was 10 µM. The IC50 [8] was 12.8 µM, the activity at 10 µM (PC-3 human cell line; [12]) was roughly 50% and the “cytotoxicity in human prostate cancer lines containing at least some androgen receptors” value ([9]; human prostate cancer lines) was “most cytotoxic”. The “cytotoxicity in a variety of other human transformed and normal cells” value ([9]; other human transformed and normal cells) was “low cytotoxicity”, the IC50 (MCF-7 Human Breast) was 100 µM and the IC50 (Ovcar 3 Human Ovary) was greater than 100 µM. The IC50 [10] was greater than 100 µM, the IC50 [11] was 85.1 µM and the IC50 (L-1210 Mouse Leukemia) was 11 µM.
For `CC1(C)C(=O)N(c2ccc(C#N)c(C(F)(F)F)c2)C(=S)N1CCc1c[nH]cn1` [BP-213], the activity at 10 µM (PC-3 human cell line; [12]) was roughly 40%.
In the case of `C[C@]1(O)CC[C@H]2[C@@H]3CCC4=CC(=O)CCC4=C3C=C[C@@]21C` [R1881, reference compound], the “CAT Activity” value (human androgen receptors [2]) is reported as 5400 cpm and 5600 cpm and 6700 cpm.
In the case of `C=CCN1C(=S)N(c2ccc(C#N)c(C(F)(F)F)c2)C(=O)C1(C)C` [BP-82, 4-[4,4-dimethyl-5-oxo-3-(2'-propenyl)-2-thioxo-1-imidazolidinyl]-2-trifluoromethyl-benzonitrile], the IC50 (human androgen receptors [1]) is reported as roughly 0.0065 µM, the IC50 [3] is reported as 66 µM and the IC50 [4] is reported as 31.5 µM. It also gave an IC50 [5] of 39 µM, an IC50 [6] of 91.7 µM and an IC50 [7] of 15.1 µM. For the same compound, the IC50 [8] was 34.5 µM, the activity at 10 µM (PC-3 human cell line; [12]) was roughly 70% and the “cytostatic effect in PC-3 human cell line” value (PC-3 human cell line; PC-3, Table II) was “cytostatic effect”. The “CAT Activity” value (human androgen receptors [2]; 1 μM) was 1300 cpm, the IC50 (MCF-7 Human Breast) was 50 µM and the IC50 (Ovcar 3 Human Ovary) was 96.5 µM. The IC50 [10] was 48.8 µM, the IC50 [11] was 13.9 µM and the IC50 (L-1210 Mouse Leukemia) was 25 µM.
For `CC(=O)NCCN1C(=S)N(c2ccc(C#N)c(C(F)(F)F)c2)C(=O)C1(C)C` [BP139, 4-[3-(2'-N-acetylaminoethyl)-4,4-dimethyl-5-oxo-2-thioxo-1-imidazolidinyl]-2-trifluoromethyl-benzonitrile], the IC50 (human androgen receptors [1]) was 0.239 µM and the “CAT Activity” value (human androgen receptors [2]; 1 μM) was 1500 cpm.
For `CC1(C)C(=O)N(c2ccc(C#N)c(C(F)(F)F)c2)C(=S)N1CCN` [BP138, 4-[3-(2'-aminoethyl) 4,4-dimethyl-5-oxo-2-thioxo-1-imidazolidinyl]-2-trifluoromethyl-benzonitrile], the IC50 (human androgen receptors [1]) was 0.139 µM and the “CAT Activity” value (human androgen receptors [2]; 1 μM) was 1600 cpm.
